# How the values were obtained:
# [1] = system: murine mixed primary glia; assay: basal apoE production from murine mixed primary glia cultures; format: cell-based; settings: no β-amyloid treatment, FIG. 5
# From the text: Primary mixed glial cultures, purified primary astrocyte, and purified primary microglial cultures prepared from rodent or human brain tissue (generally fetal) were used in the test assay. A variety of preparation methods can be used to isolate primary glial cultures, both mixed and purified for astroglial or microglial cell types. See e.g. McCarthy and de Vellis, J. Cell Biol. 85:890-902 (1980); Levinson & McCarthy in Culturing Nerve Cells, MIT Press, Cambridge, Mass. at 309-336 (1991); Hu et al. J. Biol. Chem. 271:2543-2547 (1996); Stone et al. Exptl. Neurol. 143:313-318 (1997); Barger et al. Mol. Brain Res. 40:116-126 (1996); and Manthorpe et al. J. Neurocytol. 8:605-621 (1979). Also, primary glial cultures can be prepared which include neurons, such as in the procedure described by Messmer-Joudrier et al. Eur. J. Neurosci. 8: 2652-2661 (1996). For primary cell cultures, different brain regions were used to isolate the cells. Hippocampal, cortical, cerebellar or brain stem cultures were prepared. Primary and continuous cell lines were plated into wells of a multi-well plate at a subconfluent density for the assay. Typically, the cultures were used within 1-2 days of initial plating. […]
# [2] = system: organotypic hippocampal cultures; assay: apoE release from organotypic hippocampal brain slice cultures; format: cell-based, rat; settings: for inhibition of apoE: organotypic hippocampal brain slice cultures, FIG. 7
# Experimental: Eight day old neonatal rat or mouse pups were quickly decapitated with scissors, serrated on one edge, in an aseptic fume hood. The brain was rapidly removed to buffered dissection media containing 100 ml MEM, 1 ml penicillin/streptomycin, 1 ml Tris 100×stock (10 mm final, pH 7.2), sterile filtered and chilled. The hippocampi and cortices were isolated under a dissecting microscope and transported in dissection media to a sterile fume hood. Tissue was positioned on the stage of a MacIllwain tissue chopper with a sterile paint brush, and 400 μm sections were made. Approximately 30 sections per animal were be obtained. Sections were separated by vigorously swirling the petri dish containing the sections in culture media, containing 25% horse serum, 25% Hank's media, 50% minimal essential media, 1 ml penicillin/streptomycin, 0.5 ml L-glutamine. Sections were inspected with a dissecting microscope and damaged tissue removed. The selected sections were manipulated in drops of dissecting media with Pasteur pipettes which had been scored and broken, then fire polished, to produce appropriate diameter bores, and placed on Millipore culture plate inserts set into 35 mm plate containing 1 ml culture media or 6 well plates containing 1.2 ml culture media. Plates containing inserts and media had been pre-equilibrated to 37° C. and 5% CO2. Three to six slices were positioned on each insert. Excess media was drawn off the slice, and the culture placed in a 37° C., 5% CO2 incubator. Cultures were maintained for up to 3 months. Media was changed at 24 hours, and at 3-4 day intervals.
# Media was pre-equilibrated in plates at 37° C., 5% CO2. Culture inserts holding 3 rat organotypic brain slices obtained from 8 day old animals and maintained in culture for 2 weeks were transferred to the media containing test solution. […]
# After treatment, medium is harvested and assayed for apoE levels using immunoassays such as ELISA or Western blot. Cell lysates prepared from the treated brain slices and analyzed for cell-associated apoE using the same assays.
# BV-2 microglial cells = assay: basal apoE production from BV-2 microglial cell cultures; format: cell-based, murine; settings: no β-amyloid treatment, FIG. 5
# From the text: Microglial cell lines were used to evaluate changes in apoE expression. Microglial cell lines for use in the method of the invention include murine lines, e.g. BV-2 cell line (Blasi et al. J. Neuroimmunol. 27:229-237 (1990) and the N9 cell line (Corradin et al. Glia 7:255-262 (1993) or human lines such as those described in Janabi et al. Neurosci. Lett. 195:105-108 (1995). The microglial cell lines used were obtained from the investigators who isolated the lines. Astroglial continuous cell lines were also utilized in the assay, e.g. the human U373-MG line or the rodent lines C6 and DI TNC1. All of these astrocytic lines were obtained, from the American Tissue Culture Collection cell repository (Rockville, Md.).
# To screen for inhibitors of apoE secretion or production using cultured brain cells, wells containing cultures were incubated in serum-free medium or medium containing reduced serum concentrations (1 to 0.1%) for various periods of time anywhere from 1-72 hours in the presence of the test compound. For some inhibitors, such as HMG CoA reductase and farnesylation inhibitors, pre-treatment of the cultures with the compound for 4-16 hours in serum-containing growth medium was used to maximize the effectiveness of the assay. Cultures were treated with β-amyloid to stimulate apoE levels in the test paradigm. […]
SMILES,basal apoE levels [1],"apoE release ([2]; organotypic hippocampal cultures, 24, 48, 72 hours after treatment, FIG. 6)",basal apoE levels (BV-2 microglial cells),inhibition of apoE [2],inhibition of apoE ([2]; listed as NaSalicylate)
COC(=O)[C@H](CC(C)C)NC(=O)c1ccc(NC[C@@H](N)CS)cc1-c1ccccc1 [GGTI-286],reduced basal apoE levels,inhibitory effect on apoE release,reduced basal apoE levels,–,–
O=C([O-])c1ccccc1O.[Na+] [sodium salicylate],–,–,–,time- and dose-dependent inhibition of apoE,dose dependent inhibition of apoE
